Data as given in ChEMBL document CHEMBL6103649, “Optimization of Cyclophilin B-Targeted Tri-vector Inhibitors for Novel MASH Treatments” (J Med Chem, 2025).
Active and inactive are the calls of the source. The rule behind the calls is not given here.

Key:
in vitro = details: human, Caco-2
Description: Apparent permeability of the compound in human Caco-2 cells across apical to basolateral side

[1] = Mutagenicity in Salmonella typhimurium TA98 at 5 to 100 mM incubated for 96 hrs in presence of rat liver s9 microsomes by Ames test; assay type: toxicity, Microsome; details: salmonella enterica subsp. enterica serovar typhimurium, 100000 µM, dose 5-100 mM
[2] = Mutagenicity in Salmonella typhimurium TA98 at 5 to 100 mM incubated for 96 hrs in absence of rat liver s9 microsomes by Ames test; assay type: toxicity; details: salmonella enterica subsp. enterica serovar typhimurium, 100000 µM, dose 5-100 mM
[3] = Mutagenicity in Salmonella typhimurium TA1537 at 5 to 100 mM incubated for 96 hrs in presence of rat liver s9 microsomes by Ames test; assay type: toxicity, Microsome; details: salmonella enterica subsp. enterica serovar typhimurium, 100000 µM, dose 5-100 mM
[4] = Mutagenicity in Salmonella typhimurium TA1537 at 5 to 100 mM incubated for 96 hrs in absence of rat liver s9 microsomes by Ames test; assay type: toxicity; details: salmonella enterica subsp. enterica serovar typhimurium, 100000 µM, dose 5-100 mM
[5] = Mutagenicity in Salmonella typhimurium TA100 at 5 to 100 mM incubated for 96 hrs in presence of rat liver s9 microsomes by Ames test; assay type: toxicity, Microsome; details: salmonella enterica subsp. enterica serovar typhimurium, 100000 µM, dose 5-100 mM
[6] = Mutagenicity in Salmonella typhimurium TA1535 at 5 to 100 mM incubated for 96 hrs in presence of rat liver s9 microsomes by Ames test; assay type: toxicity, Microsome; details: salmonella enterica subsp. enterica serovar typhimurium, 100000 µM, dose 5-100 mM
[7] = Mutagenicity in Salmonella typhimurium TA1535 at 5 to 100 mM incubated for 96 hrs in absence of rat liver s9 microsomes by Ames test; assay type: toxicity; details: salmonella enterica subsp. enterica serovar typhimurium, 100000 µM, dose 5-100 mM
Hepatocyte [8] = assay: Anti-MASH activity in fatty acid induced human iPSC derived Hepatocyte assessed as reduction in lipid droplet size in hepatocyte at 10 uM measured after 48 hrs; assay type: functional, cell-based
Hepatocyte [9] = assay: Anti-MASH activity in fatty acid induced human iPSC derived Hepatocyte assessed as reduction in lipid level in hepatocyte at 10 uM measured after 48 hrs; assay type: functional, cell-based
[10] = Mutagenicity in Salmonella typhimurium TA100 at 5 to 100 mM incubated for 96 hrs in absence of rat liver s9 microsomes by Ames test; assay type: toxicity; details: salmonella enterica subsp. enterica serovar typhimurium, 100000 µM, dose 5-100 mM
[11] = Metabolic stability in human liver microsomes assessed as clearance; assay type: ADME, Microsome

| SMILES | Papp A→B (in vitro) [×10⁻⁶ cm/s] | Activity [1] | Activity [2] | Activity [3] | Activity [4] | Activity [5] | Activity [6] | Activity [7] | Activity (Hepatocyte [8]) | Activity (Hepatocyte [9]) | Activity [10] | CLH [11] [µL/min/mg] |
| --- | --- | --- | --- | --- | --- | --- | --- | --- | --- | --- | --- | --- |
| CSc1ccccc1[C@H]1CCCN1C(=O)CNC(=O)N(Cc1ccc(N)c(Cl)c1)Cc1nnn(C)n1 | 5 | Non-toxic | Non-toxic | Non-toxic | Non-toxic | Non-toxic | Non-toxic | Non-toxic | Active | Active | Non-toxic | – |
| CC(C)c1cc(Oc2c(Cl)cc(-n3nc(C#N)c(=O)[nH]c3=O)cc2Cl)n[nH]c1=O | – | – | – | – | – | – | – | – | Active | Active | – | – |
| CSc1ccccc1[C@H]1CCCN1C(=O)CNC(=O)N(Cc1cnc(N)nc1)Cc1ncc(C)s1 | 0.8 | Non-toxic | Non-toxic | Non-toxic | Non-toxic | Non-toxic | Non-toxic | Non-toxic | – | – | Non-toxic | 60 |
| Cn1nnc(CN(Cc2ccc(N)c(Cl)c2)C(=O)NCC(=O)N2CCC[C@@H]2c2ccccc2Br)n1 | 6.6 | Non-toxic | Non-toxic | Non-toxic | Non-toxic | Non-toxic | Non-toxic | Non-toxic | – | – | Non-toxic | – |
